Literature values, collected in patent publication US7662811B2, “1,2,3,4-tetrahydropyrazin-2-yl acetamides and methods of use” (Amgen Inc., priority 2004, dated 2010).
No end group written: not given here.

In the case of RPPGFSPFR [BK], the “half-life of BK in plasma” value is given as “approximately 17 seconds”.
